We go through 2 compounds from patent US9301962B2, “Male contraceptive compositions and methods of use” (Baylor College of Medicine, priority 2010, dated 2016).

Data set [1] has as its system C57BL6/J/129S5 hybrid male mice. The data set can be described thus: Male fertility, fertilization and embryo developmental potential. The protocol:
Oocytes from these females were collected from their oviductal ampulla and cultured for 2 days to determine their developmental potential post-mating (FIG. 6B).
(§1) The subsequent mixture was injected intraperitoneal into male mice at 1% of the body weight of the mouse (final amount is 50 mg/kg/day). The control was DMSO dissolved 1:10 in (2-Hydroxypropyl)-β-cyclodextrin and injected similarly. […] These studies were approved by the Administrative Committee on Laboratory Animal Care at Baylor College of Medicine, and all experiments were conducted in accordance with the NIH guide for the Care and Use of Laboratory Animals.

Data set [2] has the same test system. The data set can be described thus: Mouse study: testes size and histology after daily i.p. JQ1. On the procedure:
as §1

The next data set has as its target BRDT(1) (Homo sapiens, UniProt Q58F21). The note with it: alpha-screen, H4Kac4 competition.

Method for BRDT(1): The N-terminal domain of human BRDT was cloned, expressed in E-Coli and purified as previously described (Filippakopoulos et al.).
Assays were performed with minor modifications from the manufacturer's protocol (PerkinElmer, USA). All reagents were diluted in 50 mM HEPES, 150 mM NaCl, 0.1% w/v BSA, 0.01% w/v Tween20, pH 7.5 and allowed to equilibrate to room temperature prior to addition to plates. After addition of Alpha beads to master solutions all subsequent steps were performed in low light conditions. […] Addition to wells was performed with either a multichannel pipet (for optimization experiments) or a Biotek EL406 liquid handler. After a 1 minute 1000 rpm spin-down, 100 nl of compounds from stock plates were added by pin transfer using a Janus Workstation (PerkinElmer, USA). The streptavidin-coated donor beads (25 μg/ml final) were added as with previous solution in a 2×, 10 μl volume. Following this addition, the plates were sealed with foil to block light exposure and to prevent evaporation. The plates were spun down again at 1000 rpm for 1 minute.

`Cc1sc2c(c1C)C(c1ccc(Cl)cc1)=NC(CC(=O)OC(C)(C)C)c1nnc(C)n1-2` (racemic) [JQ1, tert-Butyl 2-(4-(4-chlorophenyl)-2,3,9-trimethyl-6H-thieno[3,2-f][1,2,4]triazolo[4,3-a][1,4]diazepin-6-yl)acetate]: the “mating behavior (copulation plugs)” value in data set [1] (after 5 weeks of treatment, superovulated females) was “did not alter mating behavior”. In data set [1] (males treated 3 weeks, housed with 2 females each, 3 more weeks of treatment, n=3), the “effect on impregnation of females” value is “contraceptive effect”. Moreover, in data set [1] (within the first month following cessation of JQ1), the “treated adult male mice that sired two litters after cessation” value is listed as 6 of 6. In addition, in data set [2] (50 mg/kg/day i.p.), the “Leydig cells of the testes, histology” value was “histologically normal”; the “gross testes size compared to control males” value is “grossly smaller testes”; the “testosterone-responsive seminal vesicles, gross appearance” value was “grossly normal”. In addition, in data set [2] (50 mg/kg/day i.p., 6 weeks treatment), the testis histology entry is recorded as “seminiferous tubule degeneration”. Moreover, the “number of spermatids positive for transition protein 1 (TNP1)” value in data set [2] (immunohistochemistry of testes) is listed as “reduced”. Besides, the “crossing of the blood:testis boundary” value in data set [2] (inferred from effect on seminiferous tubule compartment) was “capable of effectively crossing the blood:testis boundary”.
Take `Cc1sc2c(c1C)C(c1ccc(Cl)cc1)=N[C@H](CC(=O)OC(C)(C)C)c1nnc(C)n1-2` (racemic) [(−)-JQ1]: the “activity for BRDT(1)” value on BRDT(1) was “inactive”.
